Results taken from patent publication US20090209633A1, “Treatment of Pain With Resiniferatoxin and Related Analogs” (priority 2006, published 2009).
“Also recorded” adds a separate entry of the source. Read-outs that look alike come from different tables or passages of the source.

Tests used:
[1] = target: T1, native TRPV1 (Rattus norvegicus, UniProt O35433); conditions: capsaicin 1 μM, cell-attached, Premkumar et al. 2002, cited from earlier work
T1 construct: RTX-induced membrane currents on native TRPV1 in embryonic DRG neurons grown in culture; endogenous in cells; host or cells: primary rat E18 DRG neurons
T1 sequence (O35433 whole entry): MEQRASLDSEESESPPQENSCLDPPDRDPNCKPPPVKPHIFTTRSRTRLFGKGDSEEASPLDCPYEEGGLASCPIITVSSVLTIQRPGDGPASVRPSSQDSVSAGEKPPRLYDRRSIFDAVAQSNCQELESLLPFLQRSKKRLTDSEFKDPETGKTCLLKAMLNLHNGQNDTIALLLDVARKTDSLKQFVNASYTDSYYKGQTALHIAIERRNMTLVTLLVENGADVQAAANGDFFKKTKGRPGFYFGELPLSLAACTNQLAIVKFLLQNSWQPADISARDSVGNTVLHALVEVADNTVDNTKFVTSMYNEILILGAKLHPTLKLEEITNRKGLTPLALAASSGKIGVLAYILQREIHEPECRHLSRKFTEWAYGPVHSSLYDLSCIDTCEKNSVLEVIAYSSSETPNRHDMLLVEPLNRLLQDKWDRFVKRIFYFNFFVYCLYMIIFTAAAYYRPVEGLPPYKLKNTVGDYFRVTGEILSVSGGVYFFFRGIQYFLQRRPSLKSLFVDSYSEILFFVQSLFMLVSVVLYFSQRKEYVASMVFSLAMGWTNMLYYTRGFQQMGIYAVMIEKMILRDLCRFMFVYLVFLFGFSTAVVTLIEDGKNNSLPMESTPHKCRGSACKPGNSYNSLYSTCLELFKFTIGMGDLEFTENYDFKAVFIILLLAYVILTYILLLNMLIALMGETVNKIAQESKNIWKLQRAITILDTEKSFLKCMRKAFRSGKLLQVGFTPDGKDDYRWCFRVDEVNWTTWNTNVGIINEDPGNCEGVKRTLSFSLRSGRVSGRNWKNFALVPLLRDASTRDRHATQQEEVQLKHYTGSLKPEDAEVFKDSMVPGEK

[2] = tested on: TRPV1-containing central terminals; assay: Paw withdrawal latency and nocifensive behavior after intrathecal RTX administration; format: in vivo
Excerpt: FIG. 14 provides photographs of TRPV1 levels in paw skin with and without intrathecal RTX administration. […] However, because PWL is a test for acute pain sensation, it is inappropriate for studying TRPV1 involvement, because TRPV1 mediates inflammatory pain.

[3] = tested on: TRPV1; format: in vivo
Excerpt: Low concentrations of RTX (0.19 micrograms/kg) were introduced intrathecally.
FIG. 14 provides photographs of TRPV1 levels in paw skin with and without intrathecal RTX administration.

[4] = target: TRPV1 (Rattus norvegicus, UniProt O35433); conditions: Caterina et al. 1997, cited from earlier work
TRPV1 (Rattus norvegicus, UniProt O35433), sequence (O35433 whole entry): as above

[5] = target: T2, vanilloid receptors (Rattus norvegicus, UniProt O35433); conditions: Acs et al. 1995; cited from earlier work
T2 sequence (O35433 whole entry): as above

[6] = target: T2, vanilloid receptors; conditions: Acs et al. 1995; read-out: Kd, ability to induce Ca2+ uptake; cited from earlier work
[7] = RTX 0.19 micrograms/kg intrathecal

COc1cc(CNC(=O)CCCC/C=C/C(C)C)ccc1O [capsaicin]
maximal Po ([1]; +60 mV): 0.4±0.08 | maximal Po ([1]; −60 mV): 0.8±0.04

C=C(C)[C@]12C[C@@H](C)[C@@]34O[C@](Cc5ccccc5)(O[C@@H]1[C@@H]3C=C(COC(=O)Cc1ccc(O)c(OC)c1)C[C@]1(O)C(=O)C(C)=C[C@@H]41)O2 [RTX, resiniferatoxin]
nocifensive behavior to intraplantar injection of capsaicin [2]: dramatic decrease; also recorded: significantly reduced | paw withdrawal latency (PWL) to radiant heat [2]: no change; also recorded: not affected | duration of guarding ([2]; intraplantar capsaicin): decreased significantly | number of guarding ([2]; intraplantar capsaicin): decreased significantly | TRPV1 levels in DRG [3, 7]: maintenance; also recorded: remained constant | TRPV1 levels in spinal cord dorsal horn (DH) [3, 7]: reduction; also recorded: significantly reduced | effect on cell body or peripheral terminals (paw skin TRPV1) ([3]; RTX intrathecal): without affecting the cell body or peripheral terminals | fold more potent than capsaicin to activate TRPV1 current [4]: 20 fold | EC50 ([4]; read-out: EC50 to activate TRPV1 current): 39 nM | fold more potent for binding as compared to Ca2+ uptake [5]: 25 fold | Ca2+ uptake potency (half-maximal concentration) [6]: 1 nM
